Patent publication US8552023B2, “Non-amidic linkers with branched termini as CGRP receptor antagonists” (Merck Sharp & Dohme Corp., priority 2008, dated 2013)

Biological target: recombinant human CL receptor/RAMP1 (Homo sapiens (Human), UniProt O60894+Q16602)
Experiment: Human CGRP receptor binding (recombinant receptor binding assay, 125I-hCGRP)
Conditions: read-out: Human CGRP receptor binding Ki
Protocol: RECOMBINANT RECEPTOR: Human CL receptor (Genbank accession number L76380) was subcloned into the expression vector pIREShyg2 (BD Biosciences Clontech) as a 5′NheI and 3′ PmeI fragment. Human RAMP1 (Genbank accession number AJ001014) was subcloned into the expression vector pIRESpuro2 (BD Biosciences Clontech) as a 5′NheI and 3′NotI fragment. HEK 293 cells (human embryonic kidney cells; ATCC #CRL-1573) were cultured in DMEM with 4.5 g/L glucose, 1 mM sodium pyruvate and 2 mM glutamine supplemented with 10% fetal bovine serum (FBS), 100 units/mL penicillin and 100 μg/mL streptomycin, and maintained at 37° C. and 95% humidity. Cells were subcultured by treatment with 0.25% trypsin with 0.1% EDTA in HBSS. Stable cell line generation was accomplished by co-transfecting 10 μg of DNA with 30 μg Lipofectamine 2000 (Invitrogen) in 75 cm^2 flasks. CL receptor and RAMP1 expression constructs were co-transfected in equal amounts. Twenty-four hours after transfection the cells were diluted and selective medium (growth medium+300 μg/mL hygromycin and 1 μg/mL puromycin) was added the following day. A clonal cell line was generated by single cell deposition utilizing a FACS Vantage SE (Becton Dickinson). Growth medium was adjusted to 150 μg/mL hygromycin and 0.5 μg/mL puromycin for cell propagation.
The cell suspension was disrupted with a laboratory homogenizer and centrifuged at 48,000 g to isolate membranes. The pellets were resuspended in harvest buffer plus 250 mM sucrose and stored at −70° C. For binding assays, 20 μg of membranes were incubated in 1 ml binding buffer (10 mM HEPES, pH 7.4, 5 mM MgCl2, and 0.2% BSA) for 3 hours at room temperature containing 10 pM ^125I-hCGRP (GE Healthcare) and antagonist. The assay was terminated by filtration through 96-well GFB glass fiber filter plates (PerkinElmer) that had been blocked with 0.05% polyethyleneimine. The filters were washed 3 times with ice-cold assay buffer (10 mM HEPES, pH 7.4 and 5 mM MgCl2). Scintillation fluid was added and the plates were counted on a Topcount (Packard). Non-specific binding was determined and the data analysis was carried out with the apparent dissociation constant (Ki) determined by using a non-linear least squares fitting the bound CPM data to the equation below: […]

recombinant human CL receptor/RAMP1, sequence (Q16602 23-461): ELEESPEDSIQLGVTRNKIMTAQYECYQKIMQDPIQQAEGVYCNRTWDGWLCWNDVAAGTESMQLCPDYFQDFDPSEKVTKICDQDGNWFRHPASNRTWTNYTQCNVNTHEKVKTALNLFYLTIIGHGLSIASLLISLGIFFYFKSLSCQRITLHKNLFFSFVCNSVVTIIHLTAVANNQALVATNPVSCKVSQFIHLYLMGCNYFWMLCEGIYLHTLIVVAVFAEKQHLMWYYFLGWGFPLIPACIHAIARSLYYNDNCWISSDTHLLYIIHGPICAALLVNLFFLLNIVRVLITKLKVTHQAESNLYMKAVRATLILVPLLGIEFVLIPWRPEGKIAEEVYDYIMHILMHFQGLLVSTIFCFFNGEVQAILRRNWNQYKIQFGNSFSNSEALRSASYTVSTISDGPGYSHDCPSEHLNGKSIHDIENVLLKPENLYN
recombinant human CL receptor/RAMP1, sequence (O60894 27-148): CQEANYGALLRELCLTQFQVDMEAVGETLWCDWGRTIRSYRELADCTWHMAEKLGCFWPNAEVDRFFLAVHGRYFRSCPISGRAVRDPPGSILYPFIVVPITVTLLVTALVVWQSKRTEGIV

Q: With CC(C)(C)C(=O)N(CC#Cc1ccc2c(c1)CC1(C2)C(=O)Nc2ncccc21)Cc1ccccc1 (centres unmarked) [Example 1, N-Benzyl-2,2-dimethyl-N-[3-(2′-oxo-1,1′,2′,3-tetrahydrospiro[indene-2,3′-pyrrolo[2,3-b]pyridin]-5-yl)prop-2-yn-1-yl]propanamide] as the compound, how does the Ki read?
A: 20 nM

Q: How did the Ki turn out when CC(C)(CF)C(=O)N(C/C=C/c1cnc2c(c1)C[C@@]1(C2)C(=O)Nc2ncccc21)[C@@H]1CCc2ccccc21 [Example 3, N-[(1R)-2,3-dihydro-1H-inden-1-yl]-3-fluoro-2,2-dimethyl-N-{(2E)-3-[(6S)-2′-oxo-1′,2′,5,7-tetrahydrospiro[cyclopenta[b]pyridine-6,3′-pyrrolo[2,3-b]pyridin]-3-yl]prop-2-en-1-yl}propanamide] was run?
A: 0.06 nM

Q: How did the Ki turn out when CC(C)(C)C(=O)N(CCCc1ccc2c(c1)CC1(C2)C(=O)Nc2ncccc21)Cc1ccccc1 (centres unmarked) [Example 2, N-benzyl-2,2-dimethyl-N-[3-(2′-oxo-1,1′,2′,3-tetrahydrospiro[indene-2,3′-pyrrolo[2,3-b]pyridin]-5-yl)propyl]propanamide] was run?
A: 45 nM

Same assay, conditions: read-out: Ki

Q: C[C@H](c1cc(F)cc(F)c1)N(C/C=C/c1cnc2c(c1)C[C@@]1(C2)C(=O)Nc2ncccc21)C(=O)C1(C(F)(F)F)CC1 [Example 11] was tested. Which Ki did it give?
A: 0.05 nM

Q: With C[C@H](c1cc(F)cc(F)c1)N(C/C=C/c1cnc2c(c1)C[C@@]1(C2)C(=O)Nc2ncccc21)C(=O)C(C)(C)CF [Example 7] as the compound, how does the Ki read?
A: 0.041 nM

Q: C[C@H](c1cc(F)cc(F)c1)N(C/C=C/c1ccc2c(c1)C[C@@]1(C2)C(=O)NC(=O)N1C)C(=O)C(C)(C)C [Example 8] was tested. Which Ki did it give?
A: 0.43 nM

Q: How did the Ki turn out when C[C@H](c1cc(F)cc(F)c1)N(C/C=C/c1cnc2c(c1)C[C@@]1(C2)C(=O)Nc2ncccc21)C(=O)C(C)(C)CCl [Example 6] was run?
A: 0.065 nM

Q: Cc1ccc([C@@H](C)N(C/C=C/c2cnc3c(c2)C[C@@]2(C3)C(=O)Nc3ncccc32)C(=O)C(C)(C)C)cc1F [Example 13] was tested. Which Ki did it give?
A: 0.13 nM
